Legend:
NK-92 cells = test: Cytokine profiling of cell culture supernatant (Luminex 200), NK-92; type: cell-based, human
Protocol: Cells were plated at 3.5×10^4 cells in a 48-well plate (Thermo Fisher Scientific, Waltham, MA, USA) in complete medium and incubated at 37° C. with 5% CO2. At 24 hours after plating, almost all the tumor cells were adherent to the bottom of the flask and the complete medium was replaced with the drug-containing medium. […] On the day of analysis, samples were thawed and centrifuged to remove cellular debris.
Human cell line culture supernatants were analyzed using an R&D systems Human Premixed Multi-Analyte Kit (R&D Systems, Inc., Minneapolis, MN, USA) and a Luminex 200 (RRID: SCR_018025) Instrument (LX200-XPON-RUO, Luminex Corporation, Austin, TX, USA) according to the manufacturer's instructions. Sample levels of TNF-α, 4-1BB/TNFRSF9/CD137, IL-8/CXCL8, Ferritin, IFN-β, IL-10, CCL2/JE/MCP-1, VEGF, CXCL13/BLC/BCA-1, IFN-γ, CCL20/MIP-3 α, CCL3/MIP-1 α, CCL22/MDC, CCL4/MIP-1 β, Fas Ligand/TNFSF6, IL-17/IL-17A, IL-2, BAFF/BLyS/TNFSF13B, GM-CSF, CXCL5/ENA-78, TRANCE/TNFSF11/RANK L, CXCL9/MIG, G-CSF, IFN-γ R1/CD119, VEGFR3/Flt-4, C-Reactive Protein/CRP, CXCL11/I-TAC, IL-21, CXCL14/BRAK, IL-6, Fas/TNFRSF6/CD95, TRAIL R3/TNFRSF10C, IL-4, CCL5/RANTES, PD-L1/B7-H1, CCL7/MCP-3/MARC, Chitinase 3-like 1, CXCL10/IP-10/CRG-2, IL-1 β/IL-1F2, IL-7, Prolactin, CCL8/MCP-2, TRAIL R2/TNFRSF10B, M-CSF, IL-15, Granzyme B, IFN-α, TREM-1, IL-12/IL-23 p40, TRAIL/TNFSF10, CCL11/Eotaxin, and IL-18/IL-1F4. Quantitative analysis with 6 standards and a minimum of 50 counts per bead region was used with the Luminex to generate analyte values reported as picograms/milliliter (pg/mL). Sample concentrations less than the lower limit of detection for each particular analyte were recoded as the lower limit value divided by ten. Sample concentrations above the upper limit of detection for a particular analyte were recoded as the upper limit of detection.

KM12C cells = test: Microarray gene expression analysis, KM12C; type: cell-based, human
Protocol: A total of 0.5×10^6 tumor cells (HCT-116, HT-29, KM12C) were plated in a 6-well plate and allowed to adhere overnight before 24-hour treatment as indicated. 1×10^6 immune cells (NK92, TALL-104) were plated and treated with elraglusib as indicated for 24 hours. RNA was isolated from cell pellets in batches of 6 using an RNeasy Plus Mini Kit (Cat #74134, Qiagen, Hilden, Germany). Acceptable RNA concentration and quality were verified with Nanodrop and Bioanalyzer measurements. GeneChip™ Human Transcriptome Array 2.0 assays were conducted according to manufacturer instructions in two batches using randomized samples to limit batch effects (Cat #902162, Applied Biosystems, Waltham, MA, USA). Applied Biosystems Transcriptomic Analysis Console (TAC) software (RRID: SCR_016519) was used to calculate fold changes in gene expression relative to the untreated control cells. Values were considered statistically significant for p values <0.05.

TALL-104 cells = test: Western blot analysis of TALL-104 immune cells; type: cell-based, human
Protocol: Cells were plated in a 6-well plate and incubated overnight before the spent media was replaced with drugged media. Drug treatment lasted for indicated durations. Protein was extracted using radioimmunoprecipitation (RIPA) assay buffer (Cat #R0278, Sigma-Aldrich, St. Louis, MO) containing cOmplete™, Mini, EDTA-free Protease Inhibitor Cocktail (Cat #4693159001, Roche, Basel, Switzerland) from sub-confluent cells. Denaturing sample buffer was added, samples were boiled at 95 degrees for 10 minutes, and an equal amount of protein lysate was electrophoresed through NuPAGE™ 4 to 12%, Bis-Tris, 1.5 mm, Mini Protein Gels (Invitrogen, Waltham, MA) then transferred to PVDF membranes. The PVDF membrane was blocked with 5% non-fat milk (Sigma-Aldrich, St. Louis, MO) in 1×TTBS. Primary antibodies were incubated with the transferred PVDF membrane in blocking buffer at 4° C. overnight. Secondary antibodies used included Goat anti-Rabbit IgG (H+L) Secondary Antibody, HRP (Cat #31460, Invitrogen, Waltham, MA), and Goat anti-Mouse IgG (H+L) Secondary Antibody, HRP (Cat #31430, Invitrogen, Waltham, MA). Signal was detected using Pierce™ ECL Western Blotting Substrate (Cat #32106, Thermo Scientific, Waltham, MA, USA) and a Syngene Imaging System (RRID: SCR_015770).

[1] = system: CT-26 MSS colon carcinoma; test: Syngeneic murine colon carcinoma BALB/c model using MSS cell line CT-26, survival; type: in vivo, BALB/c mice; settings: IP twice a week: elraglusib 70 mg/kg, anti-PD-1 10 mg/kg, anti-PD-L1 10 mg/kg
Protocol: (§1) The experimental in vivo protocol (Protocol #19-01-003) was approved by the Institutional Animal Care and Use Committee of Brown University (Providence, RI, USA). Six to 7 weeks-old female BALB/c mice (RRID: IMSR_JAX:000651) were purchased from Taconic. 50,000 cells were suspended in 50 μL ice-cold PBS and 50 μL Matrigel (Catalog # 354234, Corning, New York, USA), and 100 uL was injected subcutaneously into the rear flanks. Once tumor volume reached at least 100 mm^3, mice were randomly assigned to one of seven groups (3 mice/group): Control (isotype), elraglusib, elraglusib+Isotype, anti-PD-1, anti-PD-L1, elraglusib+anti-PD-1, and elraglusib+anti-PD-L1. All treatments were delivered by IP injection on the following dosing schedule: Isotype (70 mg/kg, twice a week), elraglusib (70 mg/kg, twice a week), anti-PD-1 (10 mg/kg, twice a week), anti-PD-L1 (10 mg/kg, twice a week). The treatment continued until mice developed signs of discomfort from excessive tumor growth. Mice were weighed once a week to monitor signs of drug toxicity. The length (L) and width (W) of the masses were measured three times per week with a digital caliper, and the tumor volume was calculated by applying the formula: 0.5LW2. Collection of whole blood and serum was performed by cardiac puncture and sent to Antech GLP for blood cell count and chemistry tests, or in-house cytokine profiling. […]

[2] = Tolerability in the CT-26 BALB/c model (body weight, blood count, serum chemistry); parameters: species or system BALB/c mice; settings: mouse, in vivo
Protocol: as §1

[3] = as treatment duration increased (0-72 hours)
[4] = immune cell lysates, cell line not given, 0-72 hours

Cn1cc(C2=C(c3coc4ccc(F)cc34)C(=O)NC2=O)c2cc3c(cc21)OCO3 [elraglusib, 3-(5-fluorobenzofuran-3-yl)-4-(5-methyl-5H-[1,3]dioxolo[4,5-f]indol-7-yl)-1H-pyrrole-2,5-dione]
IFN-γ concentration in supernatant (NK-92 cells; 1 μM, 48 hours): increases | TRAIL concentration in supernatant (NK-92 cells; 1 μM, 48 hours): increases | secreted granzyme B concentration (NK-92 cells; 1 μM, 48 hours): decreases | IFN-γ in cell culture supernatant (NK-92 cells; 24 hours treatment vs DMSO): significant increase in IFN-γ | GZMA (granzyme A) gene expression fold change (KM12C cells; 24 hours vs DMSO): 1.53 FC | downregulated genes in VEGFA-VEGFR2 signaling pathway (KM12C cells; 24 hours vs DMSO): 48 | differentially expressed genes post-treatment (KM12C cells; IC-50 concentration (1 μM), 24 hours, FC cutoff >1.5, <−1.5, p<0.05): 1,032 | NF-κB protein (TALL-104 cells; [3]): did not notice significant changes | survival protein Bcl-2 (TALL-104 cells; [3]): did not notice significant changes | NF-κB-inducing kinase (NIK) (TALL-104 cells; [4]): increases | survival protein Survivin (TALL-104 cells; [4]): increases | survival (Kaplan-Meier) as compared to the control [1]: statistically significant improved survival | renal function (BUN, creatinine, electrolytes) [2]: maintained normal renal function

Source: patent US20260256741A1, “ANTICANCER MALEIMIDE DERIVATIVES FOR USE WITH IMMUNE CHECKPOINT BLOCKADE” (BROWN UNIVERSITY, priority 2022, published 2026)
